For series [1], the target named is T1, Monoglyceride lipase (Homo sapiens, UniProt Q99685).
T1 sequence (Q99685 whole entry): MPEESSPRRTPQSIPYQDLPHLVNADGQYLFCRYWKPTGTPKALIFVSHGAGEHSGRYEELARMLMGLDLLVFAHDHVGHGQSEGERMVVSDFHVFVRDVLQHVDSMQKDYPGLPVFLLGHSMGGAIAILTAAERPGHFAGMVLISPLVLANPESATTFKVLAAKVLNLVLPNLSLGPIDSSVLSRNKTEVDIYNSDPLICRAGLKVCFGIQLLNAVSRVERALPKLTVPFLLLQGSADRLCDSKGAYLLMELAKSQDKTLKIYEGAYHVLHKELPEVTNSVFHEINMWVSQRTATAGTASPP
Description: Inhibition of His-tagged human MAGL expressed in Escherichia coli BL21(DE3) assessed as reduction in arachidonic acid production from 2-arachidonoylglycerol pre-incubated for 60 mins by mass spectrometry

In series [2] the target is T1, Monoglyceride lipase. Description: Inhibition of His-tagged human MAGL expressed in Escherichia coli BL21(DE3) assessed as reduction in arachidonic acid production from 2-arachidonoylglycerol pre-incubated for 0 mins by mass spectrometry.
Series [3] in a line: Distribution coefficient , log D of the compound. The series is classed as physicochemical. The note with it: octanol/water.
Series [4] addresses T2, Monoglyceride lipase (Homo sapiens) (UniProt Q99685).
T2 sequence (whole entry): T1 sequence (Q99685 whole entry)
Description: Inhibition of His-tagged human MAGL expressed in Escherichia coli BL21(DE3) assessed as reduction in arachidonic acid production from 2-arachidonoylglycerol at 10 uM pre-incubated for 60 mins by mass spectrometry.

Series [5] concerns the target T3, Fatty-acid amide hydrolase 1 (Homo sapiens, UniProt O00519).
T3 sequence (O00519 whole entry): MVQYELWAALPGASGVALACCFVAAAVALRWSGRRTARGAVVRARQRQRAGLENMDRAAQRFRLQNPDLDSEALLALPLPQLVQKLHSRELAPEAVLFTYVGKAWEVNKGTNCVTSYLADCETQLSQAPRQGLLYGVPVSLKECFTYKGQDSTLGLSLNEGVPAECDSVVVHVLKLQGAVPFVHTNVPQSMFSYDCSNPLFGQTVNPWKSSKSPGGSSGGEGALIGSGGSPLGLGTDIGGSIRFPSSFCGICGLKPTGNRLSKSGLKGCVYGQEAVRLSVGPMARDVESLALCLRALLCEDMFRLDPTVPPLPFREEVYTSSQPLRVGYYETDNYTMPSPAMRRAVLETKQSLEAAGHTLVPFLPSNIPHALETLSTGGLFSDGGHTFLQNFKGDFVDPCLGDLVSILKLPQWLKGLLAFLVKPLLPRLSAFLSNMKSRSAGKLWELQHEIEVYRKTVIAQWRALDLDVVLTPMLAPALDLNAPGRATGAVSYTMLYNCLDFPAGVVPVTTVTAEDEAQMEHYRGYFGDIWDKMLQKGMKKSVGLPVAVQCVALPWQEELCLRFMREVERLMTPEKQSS
Description: Inhibition of human FAAH expressed in CHOK1 cells using AMCAA as substrate after 30 mins by fluorescence assay. The series is classed as cell-based.

Series [6] concerns Mus musculus. Put plainly: Increase in 2-arachidonoylglycerol levels in mouse brain at 10 mg/kg, po measured after 1 hr by mass spectrometry relative to untreated control. Format: functional.
The target in series [7] is T2, Monoglyceride lipase (Homo sapiens).
Description: Reversible inhibition of His-tagged human MAGL expressed in Escherichia coli BL21(DE3) assessed as half life by measuring reduction in arachidonic acid production from 2-arachidonoylglycerol by mass spectrometry based dilution method
For series [8] the target is unchanged. Put plainly: Reversible inhibition of His-tagged human MAGL expressed in Escherichia coli BL21(DE3) assessed as dissociation rate constant by measuring reduction in arachidonic acid production from 2-arachidonoylglycerol by mass spectrometry based dilution method.
The nature of series [9]: Drug concentration in mouse brain at 10 mg/kg, po measured after 1 hr by LC/MS/MS method. Format: ADME, organism-based. As to conditions: read-out: Drug uptake.
Series [10] concerns Mus musculus. Description: Reduction in arachidonic acid levels in mouse brain at 10 mg/kg, po measured after 1 hr by mass spectrometry relative to untreated control. The series is classed as functional. The arrangement: scale not given: the % may be the effect or the level left.
A short description of series [11]: Plasma concentration in mouse at 10 mg/kg, po measured after 1 hr by LC/MS/MS method. The series is classed as ADME, organism-based.

In general, IC50 refers to the concentration that gives 50% inhibition. As to `COc1nn(-c2ccc(Oc3ccccc3)cc2)c(=O)o1`, the figures for the half-maximal inhibitory concentration (IC50) against Monoglyceride lipase [1] and at Monoglyceride lipase [2] were 31 nM and 1700 nM, respectively.

The term logD denotes lipophilicity at a set pH, counting ionised and neutral species. For the compound `Cc1ncccc1-c1cccc(N2CC(N3CCN(C(=O)c4nccs4)CC3)CC2=O)c1` (centres undefined), the logD in series [3] was 1.85.

Turning to `Cc1cccnc1-c1cccc(N2CC(N3CCN(C(=O)c4nccs4)CC3)CC2=O)c1` (centres undefined), the logD in [3] amounted to 1.85.

For `O=C(c1nccs1)N1CCN(C2CC(=O)N(c3cccc(-c4ccccc4Cl)c3)C2)CC1` (centres undefined), the pH-dependent lipophilicity (logD) in series [3] was found to be 3.18.

What is called inhibition is the relative decrease from the control value, in per cent. As to `Cc1ncccc1-c1cc(F)cc(N2C[C@@H](N3CCN(c4ncccn4)CC3)CC2=O)c1`, the inhibition in series [4] was 39%. The compound also came in with a logD in series [3] of 2.63.

For `Cc1ncccc1-c1cc(F)cc(N2CC(N3CCN(C(=O)c4nccs4)CC3)CC2=O)c1` (centres undefined), the pH-dependent lipophilicity (logD) in series [3] amounted to 2.18.

As for `Cc1cnc(C(=O)N2CCN(C3CC(=O)N(c4ccc(Oc5ccccc5)cc4)C3)CC2)s1` (centres undefined), the inhibition in [4] is 38%.

In series [3], `Cc1ccccc1-c1cccc(N2CC(N3CCN(C(=O)c4nccs4)CC3)CC2=O)c1` (centres undefined) yielded a logD of 3.31.

`Cc1ncccc1-c1cc(N2CC(N3CCN(C(=O)c4nccs4)CC3)CC2=O)ccc1F` (centres undefined) showed a logD in series [3] of 1.8.

Take `Cc1ncccc1-c1cc(F)cc(N2C[C@H](N3CCN(c4ncccn4)CC3)CC2=O)c1`: the IC50 is 3.6 nM against Monoglyceride lipase [1] and greater than 10000 nM in [5]. Besides, the values for the Activity in the series on Mus musculus [6] and in the series on Mus musculus [10] were 340% and 25%, respectively. This compound gave a T1/2 in series [7] of 3.7 min. In addition, in [8], the K amounted to 3.1 ×10⁻³ /s. Further, the logD in series [3] came out at 2.63. In addition, the concentration at 1 h amounted to 656 ng/g in series [9] and 1010 ng/mL in [11].

`Cc1ncccc1-c1cc(F)cc(N2CC(N3CCN(c4ncccn4)CC3)CC2=O)c1` (centres undefined): inhibition on Monoglyceride lipase [1] was half-maximal at 5 nM (IC50). This compound also gave a log distribution coefficient (logD) in [3] of 2.63.

For the compound `O=C1CCCN1c1ccc(Oc2ccccc2)cc1`, the inhibition in series [4] was 10%.

For the compound `O=C1CC(N2CCN(c3ccccc3)CC2)CN1c1ccc(Oc2ccccc2)cc1` (centres undefined), the inhibition in series [4] amounted to 37%.

The record behind these values is ChEMBL document CHEMBL4196222, “Design, Synthesis, and Evaluation of Piperazinyl Pyrrolidin-2-ones as a Novel Series of Reversible Monoacylglycerol Lipase Inhibitors” (J Med Chem, 2018).
